The values below come from patent publication US11945801B2, “Bicyclic aza compounds as muscarinic M1 and/or M4 receptor agonists” (Heptares Therapeutics Limited, priority 2018, dated 2024).

Type in all cases: cell-based
The target in assay [1] is T1, human muscarinic M1 receptor (Homo sapiens, UniProt P11229).
T1 sequence (P11229 1-460): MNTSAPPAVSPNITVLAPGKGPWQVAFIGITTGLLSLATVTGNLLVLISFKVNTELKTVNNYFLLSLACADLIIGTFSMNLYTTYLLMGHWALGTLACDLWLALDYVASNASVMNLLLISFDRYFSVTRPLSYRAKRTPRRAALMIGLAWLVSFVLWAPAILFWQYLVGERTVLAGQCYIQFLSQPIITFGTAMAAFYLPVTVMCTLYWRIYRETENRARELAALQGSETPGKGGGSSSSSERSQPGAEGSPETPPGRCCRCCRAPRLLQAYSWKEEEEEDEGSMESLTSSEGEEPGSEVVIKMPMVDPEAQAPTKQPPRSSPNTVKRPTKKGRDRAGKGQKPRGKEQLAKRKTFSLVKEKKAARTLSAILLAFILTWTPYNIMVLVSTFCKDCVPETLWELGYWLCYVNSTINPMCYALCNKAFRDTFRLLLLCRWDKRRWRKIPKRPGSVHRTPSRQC
Briefly: Alphascreen Surefire phospho-ERK1/2 functional assay, M1. The note with it: for EC50: agonist 5 min, 37° C.; for Emax: CHO. The protocol: (§1) ERK1/2 phosphorylation is a downstream consequence of both Gq/11 and Gi/o protein coupled receptor activation, making it highly suitable for the assessment of M1, M3 (Gq/11 coupled) and M2, M4 receptors (Gi/o coupled), rather than using different assay formats for different receptor subtypes. CHO cells stably expressing the human muscarinic M1, M2, M3 or M4 receptor were plated (25K/well) onto 96-well tissue culture plates in MEM-alpha+10% dialysed FBS. Once adhered, cells were serum-starved overnight. Agonist stimulation was performed by the addition of 5 μL agonist to the cells for 5 min (37° C.). Media was removed and 50 μL of lysis buffer added. After […], a 4 μL sample was transferred to 384-well plate and 7 μL of detection mixture added.
(§2) Isomer assignment (Isomer 1, Isomer 2, etc.) is based on the retention time of the compound using the separation technique that was performed in the final purification step. By implication, this could be reversed phase HPLC, chiral HPLC or chiral SFC retention time, and this will vary from compound to compound.
Background: Alpha assays give light when donor and acceptor beads are brought close together.

Assay [2] deals with T2, human muscarinic M2 receptor (Homo sapiens, UniProt P08172).
T2 sequence (P08172 1-466): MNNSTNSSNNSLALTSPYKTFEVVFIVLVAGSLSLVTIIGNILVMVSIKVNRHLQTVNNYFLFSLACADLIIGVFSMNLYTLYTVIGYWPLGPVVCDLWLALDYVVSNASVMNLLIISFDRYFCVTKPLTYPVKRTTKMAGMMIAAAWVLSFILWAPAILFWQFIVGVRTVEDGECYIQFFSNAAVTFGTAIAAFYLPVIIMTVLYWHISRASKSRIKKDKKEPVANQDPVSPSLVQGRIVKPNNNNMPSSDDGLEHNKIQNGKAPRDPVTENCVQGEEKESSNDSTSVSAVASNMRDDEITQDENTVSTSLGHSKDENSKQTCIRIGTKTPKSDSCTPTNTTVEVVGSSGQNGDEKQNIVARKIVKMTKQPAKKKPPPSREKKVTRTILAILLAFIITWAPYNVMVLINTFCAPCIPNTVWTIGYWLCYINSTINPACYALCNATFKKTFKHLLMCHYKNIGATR
Briefly: Alphascreen Surefire phospho-ERK1/2 functional assay, M2. To be noted: for Emax: CHO. The procedure: as §1, §2

For assay [3], the target named is T3, human muscarinic M3 receptor (Homo sapiens, UniProt P20309).
T3 construct: expressed in transfected cells
Kind of assay: Alphascreen Surefire phospho-ERK1/2 functional assay, M3. The note with it: for Emax: CHO. The protocol:
as §1, §2

In assay [4] the target is T4, human muscarinic M4 receptor (Homo sapiens, UniProt P08173).
T4 construct: expressed in transfected cells
T4 sequence (P08173 1-479): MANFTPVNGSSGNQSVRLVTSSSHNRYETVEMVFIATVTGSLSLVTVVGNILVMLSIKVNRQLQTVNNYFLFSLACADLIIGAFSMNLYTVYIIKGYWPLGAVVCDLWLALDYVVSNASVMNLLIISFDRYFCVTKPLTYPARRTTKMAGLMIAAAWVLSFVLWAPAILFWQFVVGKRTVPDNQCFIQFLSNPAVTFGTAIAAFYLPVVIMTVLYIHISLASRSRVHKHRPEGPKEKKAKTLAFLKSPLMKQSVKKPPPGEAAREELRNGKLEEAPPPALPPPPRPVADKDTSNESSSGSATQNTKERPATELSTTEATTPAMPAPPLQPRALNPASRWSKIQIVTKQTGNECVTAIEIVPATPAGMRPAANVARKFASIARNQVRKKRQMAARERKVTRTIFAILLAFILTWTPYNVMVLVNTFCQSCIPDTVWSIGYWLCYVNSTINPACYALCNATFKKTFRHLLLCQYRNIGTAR
Briefly: Alphascreen Surefire phospho-ERK1/2 functional assay, M4. To be noted: for EC50 / % Emax cf. ACh, M4: CHO cells stably expressing human M4; for EC50: agonist 5 min, 37° C., read-out: pEC50 M4 (converted); for Emax: CHO. The protocol: as §1, §2

Where [5] appears, read: CHO cells stably expressing human M1, read-out: pEC50 M1 (converted).
Setting [6] is: CHO cells stably expressing human M2, agonist 5 min, 37° C., read-out: pEC50 M2 (converted).
[7] abbreviates: CHO cells stably expressing human M3, agonist 5 min, 37° C., read-out: pEC50 M3 (converted).
[8] abbreviates: read-out: % Emax cf. ACh, M2, CHO cells stably expressing human M2, Emax relative to ACh.
The mark [9] stands for this setting: read-out: % Emax cf. ACh, M3, CHO cells stably expressing human M3, Emax relative to ACh.
Where [10] appears, read: read-out: % Emax cf. ACh, M1, CHO cells stably expressing human M1, Emax relative to ACh.
Setting [11] is: read-out: % Emax cf. ACh, M4, CHO cells stably expressing human M4, Emax relative to ACh.

Where two headings read alike, the source gives them in different places.

T3 sequence (P20309 whole entry): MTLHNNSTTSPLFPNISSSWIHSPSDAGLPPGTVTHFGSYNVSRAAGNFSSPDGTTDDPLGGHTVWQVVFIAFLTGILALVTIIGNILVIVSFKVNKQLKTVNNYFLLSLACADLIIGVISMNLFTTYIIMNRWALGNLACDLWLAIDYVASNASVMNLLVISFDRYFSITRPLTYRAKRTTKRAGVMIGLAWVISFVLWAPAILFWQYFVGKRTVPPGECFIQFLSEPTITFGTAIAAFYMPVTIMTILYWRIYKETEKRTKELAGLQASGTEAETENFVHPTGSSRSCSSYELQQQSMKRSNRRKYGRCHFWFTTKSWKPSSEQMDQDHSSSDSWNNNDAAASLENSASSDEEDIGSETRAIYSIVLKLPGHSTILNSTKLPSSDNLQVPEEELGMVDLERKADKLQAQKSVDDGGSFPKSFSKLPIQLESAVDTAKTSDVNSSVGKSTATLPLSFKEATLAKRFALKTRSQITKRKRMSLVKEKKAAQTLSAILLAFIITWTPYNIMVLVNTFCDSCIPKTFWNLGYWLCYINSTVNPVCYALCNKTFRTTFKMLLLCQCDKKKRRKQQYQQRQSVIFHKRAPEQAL

Regarding `CCOC(=O)N1C2CCCC1CC(N1CC(CC(=O)N3CCCCC3)C1)C2` (single isomer, unassigned) [Example 3-3 Isomer 1, Ethyl-3-(3-(2-oxo-2-(piperidin-1-yl)ethyl)azetidin-1-yl)-9-azabicyclo[3.3.1]nonane-9-carboxylate], the EC50 in assay [1] (setting [5]) was 316 nM; in assay [2] (setting [6]) it was greater than 20000 nM; in assay [3] (setting [7]), greater than 20000 nM; in assay [4], 1290 nM. Besides, the maximum response (Emax) in assay [1] (read-out: % Emax cf. ACh, M1) came to 117%; in assay [2] (read-out: % Emax cf. ACh, M2), 5%; in assay [3] (read-out: % Emax cf. ACh, M3), 9%; in assay [4] (read-out: % Emax cf. ACh, M4), 55%.

Take `CCOC(=O)N1C2CCC1CC(N1CC(OC(=O)N3CCCCCC3)C1)C2` (mixture of isomers) [Example 5-1 Isomer mixture, Ethyl 3-(3-((azepane-1-carbonyl)oxy)azetidin-1-yl)-8-azabicyclo[3.2.1]octane-8-carboxylate]: the maximum response (Emax) in assay [1] (read-out: % Emax cf. ACh, M1) is 83%; in assay [2] (read-out: % Emax cf. ACh, M2), 18%; in assay [3] (read-out: % Emax cf. ACh, M3) it was 45%; in assay [4] (read-out: % Emax cf. ACh, M4), 39%. Besides, the EC50 in assay [1] (pEC50 M1, CHO cells stably expressing human M1) is 89.1 nM; in assay [2], greater than 20000 nM; in assay [3], greater than 20000 nM; in assay [4], 427 nM.

Take `CCOC(=O)N1CC2(CCC(N3CC(OC(=O)N(CC)CC)C3)C2)C1` (single isomer, unassigned) [Example 4-5 Isomer 1, Ethyl 6-(3-((diethylcarbamoyl)oxy)azetidin-1-yl)-2-azaspiro[3.4]octane-2-carboxylate]: the “% Emax cf. ACh, M1” value in assay [1] (CHO cells stably expressing human M1, Emax relative to ACh, listed as 4-5 Isomer 1) is listed as 66%. For the same molecule, the EC50 in assay [1] (setting [5]) is 15.8 nM; in assay [2] (setting [6]), greater than 20000 nM; in assay [3] (setting [7]) it was greater than 20000 nM; in assay [4], 33.1 nM. Besides, the values for the maximal response (Emax) in assay [2] (setting [8]) and in assay [3] (setting [9]) were 6% and 54%, respectively. For the same molecule, in assay [4] (Emax relative to ACh, listed as 4-5 Isomer 1), the “% Emax cf. ACh, M4” value is listed as 31%.

Take `CCN(CC)C(=O)OC1CN(C2CCC3(C2)CN(C(=O)OC)C3)C1` (single isomer, unassigned) [Example 4-6 Isomer 2, Methyl 6-(3-((diethylcarbamoyl)oxy)azetidin-1-yl)-2-azaspiro[3.4]octane-2-carboxylate]: the “% Emax cf. ACh, M1” value in assay [1] (CHO cells stably expressing human M1, Emax relative to ACh) was found to be 93%. The EC50 is 214 nM in assay [1] (setting [5]), greater than 20000 nM in assay [2] (setting [6]), greater than 20000 nM in assay [3] (setting [7]) and 339 nM in assay [4]. In addition, the maximal effect (Emax) in assay [2] (setting [8]) amounted to 9%; in assay [3] (setting [9]), 11%. Further, in assay [4] (Emax relative to ACh), the “% Emax cf. ACh, M4” value was 32%.

Take `CCOC(=O)N1CC2CCC1CC2N1CC(OC(=O)N2CCCCCC2)C1` (single isomer, unassigned) [Example 6-4 Isomer 1, Ethyl 5-(3-((azepane-1-carbonyl)oxy)azetidin-1-yl)-2-azabicyclo[2.2.2]octane-2-carboxylate]: the EC50 was 117 nM in assay [1] (setting [5]), greater than 20000 nM in assay [2] (setting [6]), greater than 20000 nM in assay [3] (setting [7]) and 490 nM in assay [4]. Also, the Emax in assay [1] (setting [10]) came to 86%; in assay [2] (setting [8]) it was 9%; in assay [3] (setting [9]), 5%; in assay [4] (setting [11]) it was 50%.

In the case of `CCOC(=O)N1CC2(CCC(N3CC(OC(=O)N(C)CC)C3)C2)C1` (single isomer, unassigned) [Example 4-4 Isomer 1, Ethyl 6-(3-((ethyl(methyl)carbamoyl)oxy)azetidin-1-yl)-2-azaspiro[3.4]octane-2-carboxylate], the EC50 in assay [1] (setting [5]) was 58.9 nM; in assay [2] (setting [6]) it was greater than 20000 nM; in assay [3] (setting [7]), greater than 20000 nM; in assay [4] it was 22.9 nM. Besides, the Emax in assay [1] (setting [10]) is 67%; in assay [2] (setting [8]), 5%; in assay [3] (setting [9]), 0%; in assay [4] (setting [11]), 37%.

As for `CCOC(=O)N1CC2(CCC(N3CC(OC(=O)N4CCCC4)C3)C2)C1` (single isomer, unassigned) [Example 4-7 Isomer 1, Ethyl 6-(3-((pyrrolidine-1-carbonyl)oxy)azetidin-1-yl)-2-azaspiro[3.4]octane-2-carboxylate], the EC50 in assay [1] (setting [5]) was 75.9 nM; in assay [2] (setting [6]), greater than 20000 nM; in assay [3] (setting [7]), greater than 20000 nM; in assay [4] it was 49 nM. Besides, the Emax in assay [1] (setting [10]) was determined as 51%; in assay [2] (setting [8]), 7%; in assay [3] (setting [9]), 8%; in assay [4] (setting [11]) it was 29%.

Consider `CCOC(=O)N1CC2CCC1CC2N1CC(CC(=O)N(CC)C(C)C)C1` (single isomer, unassigned) [Example 2-2 Isomer 2, Ethyl-5-(3-(2-(ethyl(isopropyl)amino)-2-oxoethyl)azetidin-1-yl)-2-azabicyclo[2.2.2]octane-2-carboxylate], for which the “% Emax cf. ACh, M1” value in assay [1] (CHO cells stably expressing human M1, Emax relative to ACh, listed as 2-2 Isomer 2) worked out at 65%. The EC50 in assay [1] (setting [5]) was 229 nM; in assay [4] it was greater than 20000 nM. Further, the “% Emax cf. ACh, M2” value in assay [2] (CHO cells stably expressing human M2, Emax relative to ACh) was 6%. Moreover, in assay [3] (CHO cells stably expressing human M3, Emax relative to ACh), the “% Emax cf. ACh, M3” value was 7%. Also, the “% Emax cf. ACh, M4” value in assay [4] (Emax relative to ACh) is 31%.

Take `CCOC(=O)N1CC2(CCC(N3CC(OC(=O)N4CCCOCC4)C3)C2)C1` (single isomer, unassigned) [Example 4-9 Isomer 1, 1-(2-(Ethoxycarbonyl)-2-azaspiro[3.4]octan-6-yl)azetidin-3-yl 1,4-oxazepane-4-carboxylate]: the “% Emax cf. ACh, M1” value in assay [1] (CHO cells stably expressing human M1, Emax relative to ACh, listed as 4-9 Isomer 1) worked out at 37%. Moreover, the EC50 was 57.5 nM in assay [1] (setting [5]), greater than 20000 nM in assay [2] (setting [6]), greater than 20000 nM in assay [3] (setting [7]) and greater than 20000 nM in assay [4]. For the same molecule, the figures for the maximal response (Emax) in assay [2] (setting [8]) and in assay [3] (setting [9]) were 3% and 2%, respectively. Moreover, the “% Emax cf. ACh, M4” value in assay [4] (Emax relative to ACh, listed as 4-9 Isomer 1) is recorded as 7%.

On to `CCOC(=O)N1CC2(CCC(N3CC(OC(=O)N4CCOCC4)C3)C2)C1` (single isomer, unassigned) [Example 4-8 Isomer 1, 1-(2-(Ethoxycarbonyl)-2-azaspiro[3.4]octan-6-yl)azetidin-3-yl morpholine-4-carboxylate], for which the EC50 is 57.5 nM in assay [1] (setting [5]), greater than 20000 nM in assay [2] (setting [6]), greater than 20000 nM in assay [3] (setting [7]) and greater than 20000 nM in assay [4]. Besides, the maximal effect (Emax) in assay [1] (setting [10]) was found to be 72%; in assay [2] (setting [8]), 2%; in assay [3] (setting [9]) it was 4%; in assay [4] (setting [11]), 14%.

One may read the Emax as the size of the effect at its maximum, as opposed to the concentration needed.
